According to patent US9034862B2, “Compositions and methods for the treatment of cancer” (priority 2011, dated 2015):

Tests used:
[1] = system: human lung carcinoma A549; experiment: MTT assay, A549; type: cell-based
Protocol: (§6) Solutions of the platinum compounds were freshly prepared in sterile PBS before use and their concentrations quantitated by atomic absorption spectroscopy. Cells were seeded on a 96-well plate (1200 cells per well for cancer cells and 1800 cells per well for the normal lung fibroblasts) in 100 μL RPMI or DMEM media, and incubated for 24 h. […] The cells were then treated with 20 μL of 3-(4,5-dimethylthiazol-2-yl)-2,5-diphenyltetrazolium bromide (MTT) (5 mg/mL in PBS) and incubated for 4 h. The medium was removed, 100 μL of DMSO was added to the cells, and the absorbance of the purple formazan was recorded at 560 nm using a BioTek Synergy HT multi-detection microplate plate reader. Each condition was performed in triplicate and three independent experiments were carried out for each cell line.
(§7) Human prostate carcinoma (PC3) and human cervix carcinoma (HeLa) cells were obtained from the ATCC. The human lung carcinoma cell line A549 was kindly provided by David E. Root (Whitehead Institute for Biomedical Research). Cells were incubated at 37° C. in 5% CO2 and grown in RPMI (PC3) or DMEM (A549 and HeLa) medium supplemented with 10% fetal bovine serum and 1% penicillin/streptomycin. Cells were passaged every 3 to 4 days and restarted from the frozen stock upon reaching passage number 20.
(§8) Solutions of the platinum agents were freshly prepared in sterile PBS before use and the platinum content was quantitated by AAS. Cells were seeded on 96 well plates (1200 cells per well) in 100 μL RPMI or DMEM media\ and incubated for 24 hours. […] The cells were then treated with 20 μL of 3-(4,5-dimethylthiazol-2-yl)-2,5-diphenyltetrazolium bromide (MTT) (5 mg/mL in PBS) and incubated for 4 h. The medium was removed, 100 μL of DMSO were added to the cells, and the absorbance of the purple formazan was recorded at 570 nm using a BioTek Synergy HT multi-detection microplate plate reader. For each cell line, three independent experiments were carried out in triplicate.

[2] = system: normal lung fibroblast MRC5; experiment: MTT assay, MRC5; type: cell-based, human
Protocol: (§1) Human colon carcinoma HT29, human breast carcinoma MCF7, human bone sarcoma U2OS, human prostate carcinoma PC3, and human cervix carcinoma HeLa cells were obtained from the ATCC. A2780/CP70 cisplatin-resistant human ovarian cancer cells were kindly provided by Dr. Stephen B. Howell (Moores UCSD Cancer Center) and the human lung carcinoma cell lines A549 and normal lung fibroblast MRC5 by David E. Root (Whitehead Institute for Biomedical Research). Cells were incubated at 37° C. in 5% CO2 and grown in RPMI (HT29, A2780/CP70, and PC3) or DMEM (A549, MRC5, HeLa, MCF7, and U2OS) medium supplemented with 10% fetal bovine serum and 1% penicillin/streptomycin. Cells were passed every 3 to 4 days and restarted from a frozen stock upon reaching pass number 20.
(§2) Solutions of the platinum compounds were freshly prepared in sterile PBS before use and their concentrations quantitated by atomic absorption spectroscopy. […] The cells were then treated with 20 μL of 3-(4,5-dimethylthiazol-2-yl)-2,5-diphenyltetrazolium bromide (MTT) (5 mg/mL in PBS) and incubated for 4 h. The medium was removed, 100 μL of DMSO was added to the cells, and the absorbance of the purple formazan was recorded at 560 nm using a BioTek Synergy HT multi-detection microplate plate reader. Each condition was performed in triplicate and three independent experiments were carried out for each cell line.

[3] = system: human cervix carcinoma HeLa cells; experiment: MTT assay, HeLa; type: cell-based
Protocol: as §6, §7, §8

[4] = system: Human colon carcinoma HT29; experiment: MTT assay, HT29; type: cell-based
Protocol: as §1, §2

[5] = system: human bone sarcoma U2OS; experiment: MTT assay, U2OS; type: cell-based; conditions: 72-h incubation
Protocol: as §1, §2

[6] = system: human prostate carcinoma PC3; experiment: MTT assay, PC3; type: cell-based
Protocol: as §6, §7, §8

[7] = system: human breast carcinoma MCF7; experiment: MTT assay, MCF7; type: cell-based; conditions: Table 3, MCF7 Breast, 72-h incubation
Protocol: as §1, §2

[8] = system: NTera2; experiment: MTT assay, NTera2; type: cell-based, human; conditions: Table 3, NTera2 Testis, 72-h incubation
Protocol: as §6

[9] = system: GLuc expression in A549 cells; experiment: Transcription assay, globally platinated pGLuc, A549; type: cell-based, human; conditions: for transcription level (normalized against unplatinated plasmid): Pt/DNA ratio of […] for phenanthriplatin
Protocol: (§3) Transfection of transcription probes into A549 and HT29 cells with the pGLuc plasmid was carried out using liposomal transfecting agents. Determination of expression levels was tested by Luciferase assays monitored by a luminometer (J. Am. Chem. Soc. 2010, 132, 7429-7435). A549 cells were plated in 96-well plates at 2,000 cells/well and HT29 cells were plated in 96-well plates at 6,000 cells/well. After 48 h incubation (at ˜30% confluence), cells were transfected with 50 ng of platinated plasmids in 25 μL Opti-MEM and 0.125 μL Lipofectamine 2000, and subsequently 50 μL of antibiotics-free DMEM supplemented with 10% FBS. After 2 h, the cells were washed with medium and 100 μL of fresh medium was added. The experiment was carried out in quadruplicate.
(§4) GLuc activity was monitored using a luminescence plate reader (Synergy 2, BioTek, Winooski, Vt., USA). A 10 μL volume of medium at different time points (12, 24, 36, 48, 60 h) was transferred into opaque white 96-well plates, and 25 μL of GLuc assay solution (10 μM colelenterazine (NanoLight Technologies, Pinetop, Ariz., USA) in 2.5 mM acidified methanol (100 mM HCl), buffer (10 mM Tris-HCl pH 7.8, 1 mM EDTA, 0.6 M NaCl)) was added by the automatic injector of the instrument.
(§5) In another embodiment, A549 or HT29 cells were transfected using the platinated transcription probes, and transcription levels were investigated by determining GLuc expression as measured by […] following addition of coelenterazine as a substrate for the exported enzyme. The emission intensities were normalized against unplatinated plasmids as a control. Transcription profiles were obtained by plotting normalized levels of GLuc expression against platination levels (Pt/plasmid ratio) at five different time points. […] An increase in D0 value at different time points represents restoration of transcription.

[10] = system: Normal lung fibroblasts (MRC5) and cancerous lung (A549) cells; experiment: Selective killing of cancer cells, MRC5 vs A549 (MTT); type: cell-based, human; conditions: 72 h
Protocol: as §2

[11] = system: calf thymus DNA; experiment: Ethidium bromide DNA-binding competition, Scatchard analysis; set-up: key: competitive (type A); non-competitive (type D); both (type B); No inhibition of ethidium binding is labeled as type C
Description: Using this approach, it is possible to determine whether the inhibition of ethidium binding is competitive (type A), non-competitive (type D), or both (type B). No inhibition of ethidium binding is labeled as type C.

[12] = system: pGLuc plasmid; experiment: Platination of pGLuc plasmid; type: biochemical
Protocol: The resulting mixtures were dialyzed (molecular weight cut-off 3.5 kDa) against ddH2O overnight at 4° C. with five changes of ddH2O. The rb values (bound Pt/nucleotide) were determined by UV/Vis and atomic absorption spectroscopy.
In one embodiment, the ratio of bound platinum per plasmid was determined by measuring the Pt concentration by atomic absorption spectroscopy and the DNA concentration by UV/Vis spectroscopy.

[13] = system: GLuc expression in HT29 cells; experiment: Transcription assay, globally platinated pGLuc, HT29; type: cell-based, human; conditions: for transcription level (normalized against unplatinated plasmid): Pt/DNA ratio of […] for phenanthriplatin
Protocol: as §3, §4, §5

[14] = Table 3, PC3 Prostate, 72-h incubation
[15] = Table 3, A549 Lung, 72-h incubation
[16] = Table 4, A549 human lung carcinoma, 72 h incubation
[17] = Table 3, HeLa Cervix, 72-h incubation
[18] = Table 3, HT29 Colorectal, 72-h incubation

## cis-[Pt(NH3)2(quinoline)Cl]NO3
[1]; Table 5, A549, 72-h incubation
  IC50: 8.11 ± 0.68 µM
[2]; Table 5, MRC5, 72-h incubation
  IC50: 23.5 ± 1.6 µM
[3]; Table 5, HeLa, 72-h incubation
  IC50: 12.2 ± 0.8 µM
[4]; Table 5, HT29, 72-h incubation
  IC50: 38 ± 4.5 µM
[5]; Table 5, U2OS
  IC50: 23.5 ± 2.7 µM

## O=C1[O][Pt]2([NH][C@@H]3CCCC[C@H]3[NH]2)[O]C1=O [oxaliplatin]
[6]; [14]
  IC50: 13.2 ± 4 µM
[1]; [15]
  IC50: 6.79 ± 0.26 µM
[1]; [16]
  IC50: 10.5 ± 0.18 µM
[3]; [17]
  IC50: 11.8 ± 1.4 µM
[7]
  IC50: 17.9 ± 2.7 µM
[4]; [18]
  IC50: 1.81 ± 1.15 µM
[5]; Table 3, U2OS Bone
  IC50: 8.67 ± 0.59 µM
[8]
  IC50: 1.12 ± 0.08 µM

## cis-[Pt(NH3)2 (2-methylpyridine)Cl]NO3
[1]; Table 5, A549, 72-h incubation
  IC50: 50.6 ± 1.7 µM
[2]; Table 5, MRC5, 72-h incubation
  IC50: 58.9 ± 4.2 µM
[4]; Table 5, HT29, 72-h incubation
  IC50: 63.8 ± 1.9 µM

## O=[N+]([O-])[O-].[NH3+][Pt-2]([NH3+])([Cl])[n+]1cccc2c3ccccc3ccc21 (stereo not drawn) [cis-[Pt(NH3)2(benzo[f]quinoline)Cl]NO3]
[1]; Table 5, A549, 72-h incubation
  IC50: 0.83 ± 0.03 µM
[3]; Table 5, HeLa, 72-h incubation
  IC50: 0.64 ± 0.01 µM
[5]; Table 5, U2OS
  IC50: 0.88 ± 0.01 µM

## N.N.[Cl][Pt][Cl] [cisplatin]
[9]; A549, 12 h
  transcription level (normalized against unplatinated plasmid): 25.8%
[9]; A549, 12 h after transfection
  D0 (Pt lesions per plasmid required to reduce transcription levels to 37% of control): 16.8 Pt/plasmid
[9]; A549, 24 h after transfection
  D0 (Pt lesions per plasmid required to reduce transcription levels to 37% of control): 20.0 Pt/plasmid
[9]; A549, 36 h after transfection
  D0 (Pt lesions per plasmid required to reduce transcription levels to 37% of control): 29.5 Pt/plasmid
[9]; A549, 48 h after transfection
  D0 (Pt lesions per plasmid required to reduce transcription levels to 37% of control): 36.4 Pt/plasmid
[9]; A549, 60 h
  transcription level (normalized against unplatinated plasmid): 60.2%
[9]; A549, 60 h after transfection
  D0 (Pt lesions per plasmid required to reduce transcription levels to 37% of control): 42.6 Pt/plasmid
[6]; [14]
  IC50: 4.56 ± 0.52 µM
[6]; Table 11 (Example 3), PC3 Prostate, 72 h
  IC50: 3.93 ± 0.52 µM
[1]; [15]
  IC50: 6.75 ± 0.38 µM
[1]; [16]
  IC50: 6.62 ± 0.4 µM
[1]; Table 5, A549, 72-h incubation
  IC50: 6.75 ± 0.38 µM
[1]; Table 11 (Example 3), A549 Lung, 72 h
  IC50: 6.47 ± 0.74 µM
[10]
  ratio of IC50 values in healthy MRC5 cells to those in cancerous A549 cells: 0.9
[2]; Table 4, MRC5 normal lung fibroblast, 72 h incubation
  IC50: 6.18 ± 0.16 µM
[2]; Table 5, MRC5, 72-h incubation
  IC50: 6.18 ± 0.16 µM
[3]; [17]
  IC50: 1.77 ± 0.72 µM
[3]; Table 5, HeLa, 72-h incubation
  IC50: 1.77 ± 0.72 µM
[3]; Table 11 (Example 3), HeLa Cervix, 72 h
  IC50: 1.78 ± 0.15 µM
[7]
  IC50: 11.6 ± 0.6 µM
[4]; [18]
  IC50: 15.9 ± 1.5 µM
[4]; Table 5, HT29, 72-h incubation
  IC50: 15.9 ± 1.5 µM
[11]; 12-h incubation period
  type of inhibition of ethidium binding (Scatchard): type C
[11]; 1 min incubation period
  type of inhibition of ethidium binding (Scatchard): type C
[12]; rf 0.00074, 16 h at 37° C.
  Pt adducts per plasmid: 4.64 Pt adducts per plasmid
  rb (bound Pt/nucleotide): 0.0006
[12]; rf 0.0014, 16 h at 37° C.
  Pt adducts per plasmid: 11.67 Pt adducts per plasmid
  rb (bound Pt/nucleotide): 0.0015
[12]; rf 0.0028, 16 h at 37° C.
  Pt adducts per plasmid: 20.65 Pt adducts per plasmid
  rb (bound Pt/nucleotide): 0.0026
[12]; rf 0.0056, 16 h at 37° C.
  Pt adducts per plasmid: 43.35 Pt adducts per plasmid
  rb (bound Pt/nucleotide): 0.0054
[5]; Table 3, U2OS Bone
  IC50: 7.15 ± 0.25 µM
[5]; Table 5, U2OS
  IC50: 7.15 ± 0.25 µM
[8]
  IC50: 0.14 ± 0.03 µM
[13]; HT29, 12 h
  transcription level (normalized against unplatinated plasmid): 15.6%
[13]; HT29, 12 h after transfection
  D0 (Pt lesions per plasmid required to reduce transcription levels to 37% of control): 9.9 Pt/plasmid
[13]; HT29, 24 h after transfection
  D0 (Pt lesions per plasmid required to reduce transcription levels to 37% of control): 14.5 Pt/plasmid
[13]; HT29, 36 h after transfection
  D0 (Pt lesions per plasmid required to reduce transcription levels to 37% of control): 19.2 Pt/plasmid
[13]; HT29, 48 h after transfection
  D0 (Pt lesions per plasmid required to reduce transcription levels to 37% of control): 22.1 Pt/plasmid
[13]; HT29, 60 h
  transcription level (normalized against unplatinated plasmid): 42.9%
[13]; HT29, 60 h after transfection
  D0 (Pt lesions per plasmid required to reduce transcription levels to 37% of control): 30.0 Pt/plasmid
